Results as given in US6268478A, “Intracellular vitamin D binding protein” (Cedars-Sinai Medical Center, priority 1997, dated 2001).

Target: IDBP (Saguinus oedipus, UniProt Q9N1U2)
Assay: Competitive displacement of [3H]25-OHD3 from IDBP in unfractionated 100,000×g supernatant extracts of B95-8 cells (competitive protein binding assay, dextran-coated charcoal)
Parameters: post-nuclear 100,000xg supernatant of B95-8 marmoset lymphoblasts and partly purified column fractions; species or system Callithrix jacchus (common marmoset)
Conditions: for competition of non-vitamin D steroids and bioactive lipids with 25-OHD3 for binding: crude post-nuclear / 100,000×g supernatant extracts of B95-8 cells; for RBI (Relative Binding Index): relative ability of maximally effective concentration to displace [3H]25-OHD3, 25-OHD3 assigned 100, unfractionated 100,000×g supernatant of B95-8 cells; for binding / displacement of [3H]25-OHD3 by vitamin D2 metabolites and synthetic analogues (FIG. 2B): unfractionated B95-8 extracts, 4 nM [3H]25-OHD3; for ability to competitively displace [3H]25-OHD3 binding (FIG. 1A): 100 nM competitor, 2 nM [3H]25-OHD3
From the text: Culture and Extraction of B95-8 Cells. The B-lymphoblastoid cell line B95-8 was obtained from the American Type Culture Collection (ATCC, Manassas, Va.). This cell line was established by EBV transformation of blood leukocytes from the vitamin D-resistant new world primate, Callithrix jacchus (common marmoset). The cell line was maintained in RPMI-1640 medium (Irvine Scientific, Irvine, Calif.) routinely supplemented with 10% fetal calf serum (FCS; Gemini BioProducts, Calabasas, Calif.), 100 units/ml penicillin, 100 μg/ml streptomycin, 2 mM L-glutamine (both from Gibco-BRL, Grand Island, N.Y.) in an atmosphere of 95% air-5% CO2.
Confluent cultures were harvested by agitation to dislodge clumps of lymphoblasts that were weakly adherent to the plastic flask. Harvested cells were pelleted and washed twice in ice cold phosphate-buffered saline (PBS; 20 mM Na2 HPO4 and 150 mM NaCl, pH 7.2). The pelleted cells were then resuspended in ETD buffer (1 mM EDTA, 10 mM Tris-HCl, 5 mM dithiothreitol, pH 7.4) containing 1 mM phenylmethylsulfonylflouride and homogenized by Polytron on ice in five 15-second bursts. Nuclei with associated nuclear steroid receptor proteins, were pelleted at 4,000×g for 30 minutes at 4° C. The post-nuclear supernatant of this spin was then subjected to high-speed centrifugation at 100,000×g for 1 hour at 4° C. The resulting "100,000×g supernatant" was either aliquoted and stored at […] for further study, used in competitive ligand binding analyses, or subjected to further purification as described below in Example II.
Ligand Binding Analyses. The ability of the unfractionated 100,000×g supernatant extracts of B95-8 cells and individual column […] of increasing concentrations of radioinert compounds (see Table I) was performed by competitive protein binding assay as previously described in Gacad et al. Bone Min. Res. 8:27-35 (1993).
[…] […] […] […] The binding assay conditions were the same as those stated above except that specific binding was determined in ETD-0.3 M Na2 HPO4 buffer (pH 6.8).

Sequence of IDBP (Q9N1U2 whole entry): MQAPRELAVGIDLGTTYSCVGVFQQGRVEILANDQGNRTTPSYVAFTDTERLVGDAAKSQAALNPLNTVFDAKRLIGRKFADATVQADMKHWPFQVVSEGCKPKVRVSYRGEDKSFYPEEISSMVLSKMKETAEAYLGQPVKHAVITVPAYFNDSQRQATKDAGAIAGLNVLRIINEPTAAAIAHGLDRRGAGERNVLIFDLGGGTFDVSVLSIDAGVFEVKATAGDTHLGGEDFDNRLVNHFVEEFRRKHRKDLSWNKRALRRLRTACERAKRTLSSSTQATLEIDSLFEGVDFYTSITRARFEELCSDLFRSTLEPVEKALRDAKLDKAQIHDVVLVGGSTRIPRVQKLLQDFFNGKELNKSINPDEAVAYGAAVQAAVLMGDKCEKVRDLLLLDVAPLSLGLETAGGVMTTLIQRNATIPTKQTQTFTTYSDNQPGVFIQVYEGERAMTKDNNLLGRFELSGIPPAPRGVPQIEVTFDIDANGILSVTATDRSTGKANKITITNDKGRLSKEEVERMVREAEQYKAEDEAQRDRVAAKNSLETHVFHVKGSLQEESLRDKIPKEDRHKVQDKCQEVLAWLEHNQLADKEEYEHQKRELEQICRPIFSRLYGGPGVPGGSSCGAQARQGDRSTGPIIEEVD

Molecule | RBI (Relative Binding Index) | further results
CC(=O)[C@H]1CC[C@H]2[C@@H]3CCC4=CC(=O)CC[C@]4(C)[C@H]3CC[C@]12C [Progesterone] | 19 | competition of non-vitamin D steroids and bioactive lipids with 25-OHD3 for binding: competitively displaces [^3 H]25-OHD3
C[C@]12C[C@H](O)[C@H]3[C@@H](CCC4=CC(=O)CC[C@@]43C)[C@@H]1CC[C@@H]2C(=O)CO [Corticosterone (B), Corticosterone] | 0 | 
CC/C(=C(\c1ccccc1)c1ccc(OCCN(C)C)cc1)c1ccccc1 [Tamoxifen] | 0 | 
C[C@]12CCC(=O)C=C1CC[C@@H]1[C@@H]2CC[C@]2(C)C(=O)CC[C@@H]12 [Androstendione] | 0 | 
C[C@@H]1C[C@H]2[C@@H]3CCC4=CC(=O)C=C[C@]4(C)[C@@]3(F)[C@@H](O)C[C@]2(C)[C@@]1(O)C(=O)CO [Dexamethasone] | 0 | 
C=C1/C(=C\C=C2/CCC[C@]3(C)[C@@H]([C@H](C)/C=C/[C@@H](O)C4CC4)CC[C@@H]23)C[C@@H](O)C[C@@H]1O [Calcipotriol (MC903), Calcipotriol] | 0 | binding / displacement of [3H]25-OHD3 by vitamin D2 metabolites and synthetic analogues (FIG. 2B): none of the C-1-hydroxylated nonhypercalcemic analogues MC903, EB1089 and KH1060 (FIG. 2A) were able to displace [^3 H]25-OHD3 binding
C=C1CC[C@H](O)C/C1=C/C=C1\CCC[C@]2(C)[C@@H]([C@H](C)/C=C/[C@H](C)C(C)(C)O)CC[C@@H]12 [25-OHD2, 25-hydroxy vitamin D2] | 100 | binding / displacement of [3H]25-OHD3 by vitamin D2 metabolites and synthetic analogues (FIG. 2B): bound in unfractionated extracts equivalently to 25-OHD3 and 1,25-(OH)^2 D3
CC1=C(/C=C/C(C)=C/C=C/C(C)=C/C(=O)O)C(C)(C)CCC1 [All-trans Retinoic acid] | 0 | 
C=C1/C(=C\C=C2/CCC[C@]3(C)[C@@H]([C@H](C)CCC(O)C(C)(C)O)CC[C@@H]23)C[C@@H](O)CC1O (stereo partly shown) [1,24,25-(OH)3D3] | 36 | ability to competitively displace [3H]25-OHD3 binding (FIG. 1A): significantly decreased effective competitive binding; displacement of 25-OHD3 (competitor at 10^-7 M, 0.1 µM): 20%; displacement of 25-OHD3 at lower concentrations (competitor concentrations below 10^-7 M): no apparent displacement at lower concentrations
CC(C)CCC[C@@H](C)[C@H]1CC[C@H]2C3=CC=C4C[C@@H](O)CC[C@]4(C)[C@H]3CC[C@]12C [7-Dehydrocholesterol] | 0 | 
C[C@]12CCC(=O)C[C@@H]1CC[C@@H]1[C@@H]2CC[C@]2(C)[C@@H](O)CC[C@@H]12 [5-Dihydroxytestosterone] | 0 | competition of non-vitamin D steroids and bioactive lipids with 25-OHD3 for binding: none of the six steroid precursor molecules, glucocorticoids, mineralocorticoids, or the major intracellular metabolite of testosterone, 5-dihydrotestosterone, were capable ligands
C[C@H](CCCC(C)(C)O)[C@H]1CC[C@H]2[C@@H]3CC=C4C[C@@H](O)CC[C@]4(C)[C@H]3CC[C@]12C [25-Hydroxycholesterol] | 0 | competition of non-vitamin D steroids and bioactive lipids with 25-OHD3 for binding: none of these evaluated compounds were able to compete with 25-OHD3 for binding
C=C1/C(=C\C=C2/CCC[C@]3(C)[C@@H]([C@H](C)CCCC(C)C)CC[C@@H]23)C[C@@H](O)C[C@@H]1O [1-OHD3] | 0 | ability to competitively displace [3H]25-OHD3 binding (FIG. 1A): incapable of displacing [^3 H]25-OHD3
C=C1/C(=C\C=C2/CCC[C@]3(C)[C@@H]([C@H](C)/C=C/C=C/C(O)(CC)CC)CC[C@@H]23)C[C@@H](O)C[C@@H]1O [EB1089] | 0 | binding / displacement of [3H]25-OHD3 by vitamin D2 metabolites and synthetic analogues (FIG. 2B): none of the C-1-hydroxylated nonhypercalcemic analogues MC903, EB1089 and KH1060 (FIG. 2A) were able to displace [^3 H]25-OHD3 binding
C=C1CC[C@H](O)C/C1=C/C=C1\CCC[C@]2(C)[C@@H]([C@H](C)CCCC(C)C)CC[C@@H]12 [Vltamin D3, cholecalciferol] | 0 | ability to competitively displace [3H]25-OHD3 binding (FIG. 1A): ineffective as a competitive ligand
CC(=O)[C@H]1CC[C@H]2[C@@H]3CC=C4C[C@@H](O)CC[C@]4(C)[C@H]3CC[C@]12C [Pregnenolone] | 0 | 
C[C@]12CC[C@H](OS(=O)(=O)O)CC1=CC[C@@H]1[C@@H]2CC[C@]2(C)C(=O)CC[C@@H]12 [DHEAS] | 0 | 
C=C1CC[C@H](O)C/C1=C/C=C1\CCC[C@]2(C)[C@@H]([C@H](C)CCCC(C)(O)CO)CC[C@@H]12 (stereo partly shown) [25,26-(OH)2D3] | 70 | ability to competitively displace [3H]25-OHD3 binding (FIG. 1A): roughly equivalent in their ability to competitively inhibit
CC1=C(/C=C/C(C)=C\C=C\C(C)=C\C(=O)O)C(C)(C)CCC1 [9-cis Retinoic acid] | 0 | 

Molecule | RBI (Relative Binding Index) | further results
C[C@]12CC[C@@H]3c4ccc(O)cc4CC[C@H]3[C@@H]1CC[C@@H]2O [17β-Estradiol] | 33 | competition of non-vitamin D steroids and bioactive lipids with 25-OHD3 for binding: competitively displaces [^3 H]25-OHD3
CCCCC[C@H](O)/C=C/[C@H]1[C@H](O)CC(=O)[C@@H]1C/C=C\CCCC(=O)O [PGE2] | 0 | 
C[C@]12CC[C@H]3[C@@H](CCC4=CC(=O)CC[C@@]43C)[C@@H]1CC[C@@H]2C(=O)CO [Deoxycorticosterone (DOC), Deoxycorticosterone] | 0 | 
CC(C)CCC[C@@H](C)[C@H]1CC[C@H]2[C@@H]3CC=C4C[C@@H](O)CC[C@]4(C)[C@H]3CC[C@]12C [Cholesterol] | 0 | 
C=C1/C(=C\C=C2/CCC[C@]3(C)[C@@H]([C@@H](C)OCCCC(O)(CC)CC)CC[C@@H]23)C[C@@H](O)C[C@@H]1O [KH1060] | 0 | binding / displacement of [3H]25-OHD3 by vitamin D2 metabolites and synthetic analogues (FIG. 2B): none of the C-1-hydroxylated nonhypercalcemic analogues MC903, EB1089 and KH1060 (FIG. 2A) were able to displace [^3 H]25-OHD3 binding
CC(C)[C@@H](C)/C=C/[C@@H](C)[C@H]1CC[C@H]2/C(=C/C=C3\C[C@@H](O)CC[C@@H]3C)CCC[C@]12C [Dihydrotachysterol] | 0 | ability to competitively displace [3H]25-OHD3 binding (FIG. 1A): incapable of displacing [^3 H]25-OHD3
C[C@]12CCC(=O)C=C1CC[C@@H]1[C@@H]2[C@@H](O)C[C@]2(C=O)[C@@H](C(=O)CO)CC[C@@H]12 [Aldosterone] | 0 | 
C[C@]12CC[C@H](O)CC1=CC[C@@H]1[C@@H]2CC[C@]2(C)C(=O)CC[C@@H]12 [DHEA] | 0 | 
C=C1CC[C@H](O)C/C1=C/C=C1\CCC[C@]2(C)[C@@H]([C@H](C)/C=C/[C@H](C)C(C)C)CC[C@@H]12 [Vitamin D2, ergocalciferol] | 0 | 
CCCCC/C=C\C/C=C\C/C=C\C/C=C\CCCC(=O)O [Arachidonic acid] | 0 | 
Androstendiol | 0 | 
C[C@]12CCC(=O)C=C1CC[C@@H]1[C@@H]2C(=O)C[C@@]2(C)[C@H]1CC[C@]2(O)C(=O)CO [Cortisone] | 0 | 
C[C@]12CCC(=O)C=C1CC[C@@H]1[C@@H]2[C@@H](O)C[C@@]2(C)[C@H]1CC[C@]2(O)C(=O)CO [Hydrocortisone] | 0 | 
C=C1CC[C@H](O)C/C1=C/C=C1\CCC[C@]2(C)[C@@H]([C@H](C)CCC(O)C(C)(C)O)CC[C@@H]12 (stereo partly shown) [24,25-(OH)2D3] | 72 | ability to competitively displace [3H]25-OHD3 binding (FIG. 1A): roughly equivalent in their ability to competitively inhibit
CC#C[C@]1(O)CC[C@H]2[C@@H]3CCC4=CC(=O)CCC4=C3[C@@H](c3ccc(N(C)C)cc3)C[C@@]21C [RU486] | 0 | 
C=C1/C(=C\C=C2/CCC[C@]3(C)[C@@H]([C@H](C)/C=C/[C@H](C)C(C)(C)O)CC[C@@H]23)C[C@@H](O)C[C@@H]1O [1,25-(OH)2D2, 1,25-dihydroxyvitamin D2] | 35 | binding / displacement of [3H]25-OHD3 by vitamin D2 metabolites and synthetic analogues (FIG. 2B): bound in unfractionated extracts equivalently to 25-OHD3 and 1,25-(OH)^2 D3
C[C@]12CC[C@H]3[C@@H](CCC4=CC(=O)CC[C@@]43C)[C@@H]1CC[C@@H]2O [Testosterone] | 30 | competition of non-vitamin D steroids and bioactive lipids with 25-OHD3 for binding: competitively displaces [^3 H]25-OHD3
CCCCC[C@H](O)/C=C/[C@@H]1[C@@H](C/C=C\CCCC(=O)O)[C@@H](O)C[C@H]1O [PGF2alpha] | 0 | 
